# Test results reported in US7053046B2 (priority 2001, dated 2006).
# Tests used:
# Type in all cases: cell-based, human
# [1] = system: VEGF A
# [2] = system: VEGF B
# [3] = system: VEGF C
Molecule,VEGF A gene expression ratio treated/untreated (up) [1],VEGF B gene expression ratio treated/untreated (up) [2],VEGF C gene expression ratio treated/untreated (up) [3]
[Cl-].[Cl-].[Co+2] [CoCl2],up 3.4 x,up 1.4 x,up 3.0 x
YGRKKRRQRRR-DLDLEMLA(Hyp)YIPMDDDFQL [ODD peptide],up 3.2 x,up 1.4 x,up 4.4 x
